From patent US20060057154A1, “Compositions for inducing of immunotolerance” (Universiteit Utrecht Holding B.V., priority 2003, published 2006)

Legend:
[1] = tested on: OVA-sensitized BALB/c mice; assay: OVA-specific IgE levels in serum (sandwich ELISA) in mouse model of allergic asthma; type: in vivo, mouse (BALB/c)
Method: (§1) Animals. Animal care and use were performed in accordance with the guidelines of the Dutch Committee of Animal Experiments. Specific pathogen-free male BALB/c mice (5 to 6 weeks old) were purchased from Charles River (Maastricht, The Netherlands) and housed in macrolon cages in a laminar flow cabinet and provided with food and water ad libitum.
(§2) Sensitization, treatment and challenge. Mice (6 to 8 weeks old) were sensitized intraperitoneally (i.p.) on days 0 and 7 with 10 μg ovalbumin (OVA, grade V, Sigma-Aldrich) in 0.1 ml alum (Pierce, Rockford, Ill.). Two weeks after the last sensitization, the mice were divided into six groups. The sham-immunotherapy and the OVA-immunotherapy groups were treated with three s.c. injections of, respectively, 0.2 ml pyrogen-free saline (B. Braun, Melsungen, Germany) or 1 mg OVA in 0.2 ml pyrogen-free saline on alternate days. In three groups, OVA-immunotherapy was co-injected with 0.1 μg, 0.03 μg or 0.01 μg 1α,25-dihydroxyvitamin D3 (1α,25(OH)2 VitD3), a selective inhibitor of NF-κb. One group was treated with sham-immunotherapy and combined with co-injection of 0.1 μg 1α,25(OH)2 VitD3. Ten days after treatment, mice were exposed to three OVA inhalation challenges (10 mg/ml in saline) for 20 minutes every third day.
Determination of OVA-specific IgE levels in serum. From each mouse, serum was obtained after treatment but before OVA challenge (pre-measurement) by a small incision in the tail vein. After measurement of airway responsiveness in vivo, mice were sacrificed by i.p. injection of 1 ml 10% urethane in saline and were bled by cardiac puncture. […] Serum levels of OVA-specific IgE were measured by sandwich ELISA as described previously (Deurloo et al., 2001).
Statistical analysis. All data are expressed as mean±standard error of mean (SEM). The airway dose-response curves to methacholine were statistically analyzed by a general linear model of repeated measurements followed by post-hoc comparison between groups. […] All other data were analyzed using a Student's t test (2-tailed, homosedastic). […]

[2] = tested on: OVA-sensitized BALB/c mice; assay: Cellular composition of bronchoalveolar lavage fluid (eosinophil number) in mouse model of allergic asthma; type: in vivo, mouse (BALB/c)
Method: as §1, §2
In a second series of experiments, OVA-immunotherapy, as described above, was carried out using a sub-optimal amount of 100 μg OVA in saline for OVA-immunotherapy. OVA-immunotherapy was either given alone or in combination with 0.01 μg 1α,25(OH)2 VitD3. Sham-immunotherapy alone or in combination with 0.01 μg 1α,25(OH)2 VitD3 served as control groups.
Analysis of the cellular composition of the bronchoalveolar lavage fluid. Bronchoalveolar lavage (BAL) was performed immediately after bleeding of the mice by lavage of the airways through a tracheal cannule five times with 1 ml saline (37° C.). Cells in the BALF were centrifuged and resuspended in cold PBS. The total number of cells in the BAL was determined using a Bürker-Türk counting chamber (Karl Hecht Assistant KG, Sondheim/Röhm, Germany). For differential BAL cell counts, cytospin preparations were made (15×g, five minutes, 4° C., Kendro Heraues Instruments, Asheville, N.C.). Next, cells were fixed and stained with Diff-Quick (Dade A. G., Düdingen, Switzerland). Per cytospin, 200 cells were counted and differentiated into mononuclear cells, eosinophils, and neutrophils by standard morphology and staining characteristics.
Statistical analysis. All data are expressed as mean±standard error of mean (SEM). The airway dose-response curves to methacholine were statistically analyzed by a general linear model of repeated measurements followed by post-hoc comparison between groups. Data were log transformed before analysis to equalize variances in all groups. All other data were analyzed using a Student's t test (2-tailed, homosedastic). Results were considered statistically significant at the p<0.05 level.

[3] = tested on: OVA-sensitized BALB/c mice; assay: Airway responsiveness to methacholine in vivo (whole-body plethysmography, Penh) in mouse model of allergic asthma; set-up: species or system mouse (BALB/c)
Method: as §1
as §2, with “One group was treated with sham-immunotherapy and combined with co-injection of 0.1 μg 1α,25(OH)2 VitD3. Ten days after treatment, mice were exposed to three OVA inhalation challenges (10 mg/ml in saline) for 20 minutes every third day.” left out
Measurement of airway responsiveness in vivo. Airway responsiveness to methacholine was measured after treatment but before OVA challenge (pre-measurement) and 24 hours after the last OVA challenge. Airway responsiveness was measured in conscious, unrestrained mice using barometric whole-body plethysmography by recording respiratory pressure curves (Buxco, EMKA Technologies, Paris, France) in response to inhaled methacholine (acetyl-β-methylcholine chloride, Sigma-Aldrich). […] Briefly, mice were placed in a whole-body chamber and basal readings were determined for three minutes. Aerosolized saline, followed by doubling concentrations of methacholine (ranging from 3.13-25 mg/ml in saline), were nebulized for three minutes, and readings were determined for three minutes after each nebulization.
Statistical analysis. All data are expressed as mean±standard error of mean (SEM). The airway dose-response curves to methacholine were statistically analyzed by a general linear model of repeated measurements followed by post-hoc comparison between groups. […]

[4] = co-injection of 0.01 μg with OVA-immunotherapy (1 mg OVA), compared to OVA-immunotherapy alone

Question: Which “Serum levels of OVA-specific IgE after OVA inhalation challenge” value [1, 4] does the source give for C=C1/C(=C\C=C2/CCC[C@]3(C)[C@@H]([C@H](C)CCCC(C)(C)O)CC[C@@H]23)C[C@@H](O)C[C@@H]1O [1α,25(OH)2 VitD3, 1α,25-dihydroxyvitamin D3] here?
Answer: Its value is “significantly increased the reduction of serum IgE levels”.

Question: What about the “Serum levels of OVA-specific IgE after OVA inhalation challenge” value ([1]; co-injection of 0.1 μg with sham-immunotherapy, compared to sham-immunotherapy alone) of the same compound?
Answer: Its value is “did not affect serum IgE levels”.

Question: What about the “Number of BALF eosinophils after OVA inhalation challenge” value (“Number of BALF eosinophils” for short) [2, 4] of the same compound?
Answer: Its value is “significantly increased the reduction of BALF eosinophil numbers”.

Question: What about the “Number of BALF eosinophils” value ([2]; first series, co-injection of 0.1 μg with sham-immunotherapy) of the same compound?
Answer: Its value is “did not significantly affect BAL eosinophil number”.

Question: And the “Number of BALF eosinophils” value ([2]; second series, co-injection of 0.01 μg with sham-immunotherapy)?
Answer: The value was “did not significantly affect BAL eosinophil number”.

Question: What about the “Number of BALF eosinophils” value ([2]; second series, co-injection of 0.01 μg with sub-optimal OVA-immunotherapy (100 μg OVA), compared to OVA-immunotherapy alone) of the same compound?
Answer: The value was “significantly increased the reduction of BALF eosinophil numbers”.

Question: What about the “AHR to methacholine after OVA inhalation challenge” value ([3]; co-injection of 0.1 μg with sham-immunotherapy (saline)) of the same compound?
Answer: The value was “did not affect AHR”.

Question: And the “AHR to methacholine after OVA inhalation challenge” value ([3]; co-injection s.c. of 0.1, 0.03 or 0.01 μg (all doses used) with OVA-immunotherapy (1 mg OVA), compared to OVA-IT alone, P<0.05)?
Answer: The value was “significantly potentiated the reduction of AHR to methacholine”.

Question: Which results are given for “OVA-immunotherapy: three s.c. injections of 1 mg (or sub-optimal 100 μg) ovalbumin (OVA, grade V) in pyrogen-free saline on alternate days”?
Answer: Serum levels of OVA-specific IgE after OVA inhalation challenge ([1]; OVA-immunotherapy alone (1 mg OVA), compared to sham-treated OVA-challenged mice): significantly reduced; Number of BALF eosinophils after OVA inhalation challenge ([2]; OVA-immunotherapy alone (1 mg OVA), compared to sham-treated mice): significantly reduced; Number of BALF eosinophils after OVA inhalation challenge ([2]; second series, sub-optimal OVA-immunotherapy alone (100 μg OVA), compared to sham-treated mice): significantly reduced; AHR to methacholine after OVA inhalation challenge ([3]; OVA-immunotherapy alone (3 s.c. injections of 1 mg OVA), compared to sham-treated mice, P<0.05): partially reduced
